{"source": "patent US20250144067A1", "about": "“PERSONALIZED STARVATION THERAPY FOR CANCER” (Faeth Therapeutics, Inc., priority 2021, published 2025)", "key": {"[1]": {"system": "NCI-H292 lung cancer cells", "assay": "FDA drug screening, complete media vs cholesterol-free media with simvastatin (TABLE 2)", "type": "cell-based, human", "settings": "for Cholesterol-free media + simvastatin (0.04 μM) / Complete Media: NCI-H292 cells"}, "[2]": {"system": "NCI-H292 lung cancer cells", "assay": "FDA drug screening, complete media vs cholesterol-free media without statin (TABLE 1)", "type": "cell-based, human"}, "[3]": {"settings": "FDA drug library screen, cholesterol-free media with simvastatin 0.04 μM"}, "[4]": {"settings": "FDA drug library screen, complete media"}, "[5]": {"settings": "complete media vs cholesterol-free media + simvastatin (0.04 μM), >0 enhanced anti-cancer activity, about 0 neutral, <0 antagonist"}, "[6]": {"settings": "Complete minus Cholesterol-free, greater than 0 enhanced anti-cancer activity, about 0 neutral, below 0 antagonists"}, "[7]": {"settings": "NCI-H292 cells in cholesterol-free media without statin"}, "[8]": {"settings": "NCI-H292 cells in complete media"}, "[9]": {"settings": "drug in cholesterol-free media with simvastatin 0.04 μM"}, "[10]": {"settings": "Complete minus Cholesterol-free, >0 enhanced anti-cancer activity, about 0 neutral, <0 antagonist"}, "[11]": {"settings": "NCI-H292 cells, complete media, FDA drug library screen"}, "[12]": {"settings": "NCI-H292 cells, cholesterol-free media without statin"}, "[13]": {"settings": "NCI-H292 cells, cholesterol-free media without statin, FDA drug library screen"}, "[14]": {"settings": "complete vs cholesterol-free media, greater than 0 enhanced anti-cancer activity, about 0 neutral, below 0 antagonists"}, "[15]": {"settings": "cholesterol-free media with simvastatin 0.04 μM, cell growth value in FDA drug screen"}, "[16]": {"settings": "complete media, cell growth value in FDA drug screen"}, "[17]": {"settings": "complete media minus cholesterol-free media + simvastatin, >0 enhanced anti-cancer activity, about 0 neutral, <0 antagonist"}, "[18]": {"settings": "complete media vs cholesterol-free media + simvastatin (0.04 μM), […]"}}, "note": "Where a name gives a salt, the structure may show the parent alone.", "data": [{"smiles": "NC(=O)CN1CCCC1=O", "note": "[Piracetam]", "values": [{"measurement": "Cholesterol-free media + simvastatin (0.04 μM)", "setting": "[1]; [3]", "result": 1.178}, {"measurement": "Complete Media", "setting": "[1]; [4]", "result": 1.066}, {"measurement": "Difference", "setting": "[1]; [5]", "result": "−0.11"}, {"measurement": "Difference", "setting": "[2]; [6]", "result": "−0.50"}, {"measurement": "Cholesterol-free", "setting": "[2]; [7]", "result": 1.403}, {"measurement": "Complete", "setting": "[2]; [8]", "result": 0.9062}]}, {"smiles": "O=C(O)[C@H](CC(=O)N1C[C@H]2CCCC[C@H]2C1)Cc1ccccc1", "note": "[Mitiglinide (Calcium)]", "values": [{"measurement": "Cholesterol-free media + simvastatin (0.04 μM)", "setting": "[1]; [9]", "result": 1.855}, {"measurement": "Complete Media", "setting": "[1]; drug in complete media", "result": 1.594}, {"measurement": "Difference", "setting": "[1]; [5]", "result": "−0.26"}, {"measurement": "Difference", "setting": "[2]; [6]", "result": "−0.81"}, {"measurement": "Cholesterol-free", "setting": "[2]; [7]", "result": 1.668}, {"measurement": "Complete", "setting": "[2]; [8]", "result": 0.8559}]}, {"smiles": "CCCC(=O)Nc1ccc(OCC(O)CNC(C)C)c(C(C)=O)c1", "note": "(stereo not shown) [Acebutolol (hydrochloride)]", "values": [{"measurement": "Cholesterol-free media + simvastatin (0.04 μM)", "setting": "[1]; [3]", "result": 1.195}, {"measurement": "Complete Media", "setting": "[1]; [4]", "result": 1.105}, {"measurement": "Difference", "setting": "[1]; [5]", "result": "−0.09"}, {"measurement": "Difference", "setting": "[2]; [6]", "result": "−0.56"}, {"measurement": "Cholesterol-free", "setting": "[2]; [7]", "result": 1.541}, {"measurement": "Complete", "setting": "[2]; [8]", "result": 0.9763}]}, {"smiles": "CCCCCCCCCCCCN1CCCCCC1=O", "note": "[Laurocapram]", "values": [{"measurement": "Cholesterol-free media + simvastatin (0.04 μM)", "setting": "[1]; [3]", "result": 1.036}, {"measurement": "Complete Media", "setting": "[1]; [4]", "result": 0.883}, {"measurement": "Difference", "setting": "[1]; [5]", "result": "−0.15"}, {"measurement": "Difference", "setting": "[2]; [10]", "result": "−0.06"}, {"measurement": "Complete", "setting": "[2]; [11]", "result": 0.887}]}, {"smiles": "Nc1ccn([C@@H]2O[C@H](CO)[C@@H](O)[C@H]2O)c(=O)n1", "note": "[Cytidine]", "values": [{"measurement": "Cholesterol-free media + simvastatin (0.04 μM)", "setting": "[1]; [9]", "result": 1.411}, {"measurement": "Complete Media", "setting": "[1]; drug in complete media", "result": 1.221}, {"measurement": "Difference", "setting": "[1]; [5]", "result": "−0.19"}, {"measurement": "Difference", "setting": "[2]; [10]", "result": "−0.23"}, {"measurement": "Cholesterol-free", "setting": "[2]; [12]", "result": 1.318}, {"measurement": "Complete", "setting": "[2]; NCI-H292 cells, complete media", "result": 1.09}]}, {"smiles": "O=C(NC[C@H]1CN(c2ccc(N3CCOCC3=O)cc2)C(=O)O1)c1ccc(Cl)s1", "note": "[Rivaroxaban]", "values": [{"measurement": "Cholesterol-free media + simvastatin (0.04 μM)", "setting": "[1]; [3]", "result": 1.199}, {"measurement": "Complete Media", "setting": "[1]; [4]", "result": 1.057}, {"measurement": "Difference", "setting": "[1]; [5]", "result": "−0.14"}, {"measurement": "Difference", "setting": "[2]; [10]", "result": "−0.30"}, {"measurement": "Cholesterol-free", "setting": "[2]; [12]", "result": 1.076}, {"measurement": "Complete", "setting": "[2]; NCI-H292 cells, complete media", "result": 0.7773}]}, {"smiles": "C#CCC(Cc1cnc2nc(N)nc(N)c2n1)c1ccc(C(=O)N[C@@H](CCC(=O)O)C(=O)O)cc1", "note": "(stereo partly shown) [Pralatrexate]", "values": [{"measurement": "Cholesterol-free media + simvastatin (0.04 μM)", "setting": "[1]; [3]", "result": 0.194}, {"measurement": "Complete Media", "setting": "[1]; [4]", "result": 0.0957}, {"measurement": "Difference", "setting": "[1]; [5]", "result": "−0.10"}, {"measurement": "Difference", "setting": "[2]; [10]", "result": 0.03}, {"measurement": "Cholesterol-free", "setting": "[2]; [13]", "result": 0.04874}, {"measurement": "Complete", "setting": "[2]; [11]", "result": 0.07794}]}, {"smiles": "Nc1c(CC(=O)O)cccc1C(=O)c1ccc(Br)cc1", "note": "[Bromfenac (sodium)]", "values": [{"measurement": "Complete Media", "setting": "[1]; FDA library drug in complete media", "result": 1.029}, {"measurement": "Difference", "setting": "[1]; [5]", "result": "−0.59"}, {"measurement": "Cholesterol-free", "setting": "[2]; [12]", "result": 1.333}, {"measurement": "Complete", "setting": "[2]; NCI-H292 cells, complete media", "result": 0.9935}, {"measurement": "Difference", "setting": "[2]; [14]", "result": "−0.34"}]}, {"smiles": "O=C1CCC(N2C(=O)c3ccccc3C2=O)C(=O)N1", "note": "(stereo not shown) [Thalidomide]", "values": [{"measurement": "Cholesterol-free media + simvastatin (0.04 μM)", "setting": "[1]; [9]", "result": 1.184}, {"measurement": "Complete Media", "setting": "[1]; drug in complete media", "result": 1.013}, {"measurement": "Difference", "setting": "[1]; [5]", "result": "−0.17"}, {"measurement": "Difference", "setting": "[2]; [6]", "result": "−0.92"}, {"measurement": "Cholesterol-free", "setting": "[2]; [7]", "result": 1.865}, {"measurement": "Complete", "setting": "[2]; [8]", "result": 0.9496}]}, {"smiles": "O=C1c2c(O)cccc2Cc2cccc(O)c21", "note": "[Dithranol]", "values": [{"measurement": "Cholesterol-free media + simvastatin (0.04 μM)", "setting": "[1]; [15]", "result": 0.8476}, {"measurement": "Complete Media", "setting": "[1]; [16]", "result": 0.9249}, {"measurement": "Difference", "setting": "[1]; [17]", "result": 0.08}, {"measurement": "Cholesterol-free", "setting": "[2]; [12]", "result": 1.314}, {"measurement": "Complete", "setting": "[2]; NCI-H292 cells, complete media", "result": 0.9897}, {"measurement": "Difference", "setting": "[2]; [14]", "result": "−0.32"}]}, {"smiles": "Cc1c(C(=O)Nc2ccc(N3C[C@@H](C)O[C@@H](C)C3)nc2)cccc1-c1ccc(OC(F)(F)F)cc1", "note": "[Sonidegib]", "values": [{"measurement": "Cholesterol-free media + simvastatin (0.04 μM)", "setting": "[1]; [15]", "result": 1.12}, {"measurement": "Complete Media", "setting": "[1]; [16]", "result": 1.188}, {"measurement": "Difference", "setting": "[1]; [17]", "result": 0.07}, {"measurement": "Cholesterol-free", "setting": "[2]; [13]", "result": 0.6523}, {"measurement": "Complete", "setting": "[2]; [11]", "result": 0.8188}, {"measurement": "Difference", "setting": "[2]; complete vs cholesterol-free media, >0 enhanced anti-cancer activity, about 0 neutral, <0 antagonist", "result": 0.17}]}, {"smiles": "CC1=C[C@]23C(=O)[C@@H](C=C(CO)[C@@H](O)[C@]2(O)[C@H]1O)[C@H]1[C@@H](C[C@H]3C)C1(C)C", "note": "[Ingenol]", "values": [{"measurement": "Cholesterol-free media + simvastatin (0.04 μM)", "setting": "[1]; [3]", "result": 1.056}, {"measurement": "Complete Media", "setting": "[1]; [4]", "result": 0.969}, {"measurement": "Difference", "setting": "[1]; [18]", "result": "−0.09"}, {"measurement": "Difference", "setting": "[2]; Complete minus Cholesterol-free, […]", "result": "−0.29"}, {"measurement": "Cholesterol-free", "setting": "[2]; [12]", "result": 0.932}, {"measurement": "Complete", "setting": "[2]; NCI-H292 cells, complete media", "result": 0.6376}]}, {"smiles": "CCOC(=O)[C@H](CCc1ccccc1)N[C@H]1CS[C@H](c2cccs2)CN(CC(=O)O)C1=O", "note": "[Temocapril (hydrochloride)]", "values": [{"measurement": "Cholesterol-free media + simvastatin (0.04 μM)", "setting": "[1]; cholesterol-free media with simvastatin 0.04 μM, FDA drug library screen (TABLE 2)", "result": 1.423}, {"measurement": "Complete Media", "setting": "[1]; complete media, FDA drug library screen (TABLE 2)", "result": 1.436}, {"measurement": "Difference", "setting": "[1]; complete media minus cholesterol-free media + simvastatin (0.04 μM), >0 enhanced anti-cancer activity, about 0 neutral, <0 antagonist", "result": 0.01}, {"measurement": "Difference", "setting": "[2]; [10]", "result": 0.00}, {"measurement": "Cholesterol-free", "setting": "[2]; [13]", "result": 0.6068}, {"measurement": "Complete", "setting": "[2]; [11]", "result": 0.6079}]}, {"smiles": "O=S(=O)([O-])c1cc(O)ccc1O.O=S(=O)([O-])c1cc(O)ccc1O.[Ca+2]", "note": "[Calcium dobesilate]", "values": [{"measurement": "Cholesterol-free media + simvastatin (0.04 μM)", "setting": "[1]; [9]", "result": 1.427}, {"measurement": "Complete Media", "setting": "[1]; drug in complete media", "result": 1.218}, {"measurement": "Difference", "setting": "[1]; [18]", "result": "−0.21"}, {"measurement": "Cholesterol-free", "setting": "[2]; [13]", "result": 1.325}, {"measurement": "Complete", "setting": "[2]; [11]", "result": 1.418}, {"measurement": "Difference", "setting": "[2]; complete vs cholesterol-free media, […]", "result": 0.09}]}]}
